The text below walks through data of ChEMBL document CHEMBL3120149, “A multiple free-radical scavenging (MULTIS) study on the antioxidant capacity of a neuroprotective drug, edaravone as compared with uric acid, glutathione, and trolox” (Bioorg Med Chem Lett, 2014).

What all share (type): functional
Assay [1] is described as follows: Antioxidant activity assessed as H2O2-induced hydroxyl radical scavenging activity by ESR spin trapping method relative to CYPMPO.
Assay [2] is described as follows: Antioxidant activity assessed as DMPO/H2O2-induced hydroxyl radical scavenging activity by fast-flow EPR technique.
The nature of assay [3]: Antioxidant activity assessed as AAPH-induced alkoxyl radical scavenging activity by ESR spin trapping method relative to CYPMPO.
Assay [4] can be described thus: Antioxidant activity assessed as riboflavin/EDTA-induced superoxide anion radical scavenging activity by ESR spin trapping method.
A short description of assay [5]: Antioxidant activity assessed as riboflavin/EDTA-induced superoxide anion radical scavenging activity by ESR spin trapping method relative to CYPMPO.
Assay [6] can be described thus: Antioxidant activity assessed as DMSO/H2O2-induced methyl radical scavenging activity by ESR spin trapping method relative to DMPO.
The nature of assay [7]: Antioxidant activity assessed as t-butylhyroperoxide-induced alkylperoxyl radical scavenging activity by ESR spin trapping method relative to CYPMPO.
Assay [8] in a line: Antioxidant activity assessed as rosebengal-induced singlet oxygen radical scavenging activity by ESR spin trapping method relative to 4-OH-TEMP.
Assay [9] can be described thus: Antioxidant activity assessed as rosebengal-induced singlet oxygen radical scavenging activity by ESR spin trapping method.
Assay [10] can be described thus: Antioxidant activity assessed as hydroxyl radical scavenging activity.
Assay [11] can be described thus: Antioxidant activity assessed as AAPH-induced alkoxyl radical scavenging activity by ESR spin trapping method.
Assay [12] is described as follows: Antioxidant activity assessed as H2O2-induced hydroxyl radical scavenging activity by ESR spin trapping method.
Assay [13] is described as follows: Antioxidant activity assessed as DMSO/H2O2-induced methyl radical scavenging activity by ESR spin trapping method.
A short description of assay [14]: Antioxidant activity assessed as t-butylhyroperoxide-induced alkylperoxyl radical scavenging activity by ESR spin trapping method.

As to `CC1=NN(c2ccccc2)C(=O)C1`, the Ratio in assay [1] was 28.7; in assay [3], 139; in assay [5], 61.1; in [6], 2.14; in assay [7], 39; in [8] it was 306. Further, the K amounted to 3 ×10¹⁰ /M/s in [2]; 2.93 ×10³ /M/s in [4]; 27.5 ×10⁶ /M/s in assay [9]; 1.4 ×10¹⁰ /M/s in assay [10]; 3.16 ×10⁶ /M/s in assay [11]; 298 ×10⁹ /M/s in assay [12]. For the same compound, in assay [13], the K is 30 ×10⁶ /M/s.

`N[C@@H](CCC(=O)N[C@@H](CS)C(=O)NCC(=O)O)C(=O)O`: the Ratio in assay [1] was found to be 1.59; in assay [3], 121; in assay [5], 23.3; in assay [6], 0.142; in assay [7] it was 4.09; in [8], 10400. Moreover, the K is 1.12 ×10³ /M/s in assay [4]; 939 ×10⁶ /M/s in assay [9]; 2.73 ×10⁶ /M/s in assay [11]; 16.5 ×10⁹ /M/s in assay [12]; 1.99 ×10⁶ /M/s in [13].

As for `CC1(C)COP(=O)(C2(C)CCC=[N+]2[O-])OC1` (stereo not given), the results for the K in [4] and in assay [11] were 48 M⁻¹ s⁻¹ and 2.27 ×10⁴ /M/s, respectively.

For `C[C@@H]1O[C@@H](OC[C@H]2O[C@@H](Oc3c(-c4ccc(O)c(O)c4)oc4cc(O)cc(O)c4c3=O)[C@H](O)[C@@H](O)[C@@H]2O)[C@H](O)[C@H](O)[C@H]1O`, the K in [4] turned out to be 1.5 ×10⁴ /M/s; in assay [9], 3.5 ×10⁸ /M/s; in assay [11], 6.9 ×10⁶ /M/s.

Take `Oc1nc(O)c2nc(O)[nH]c2n1`: the Ratio in assay [1] worked out at 0.894; in assay [3] it was 436; in [5], 222; in [6], 0; in assay [7], 0; in assay [8], 25.7. Also, the K in assay [4] was 10.7 ×10³ /M/s; in assay [14], 0 M⁻¹ s⁻¹; in assay [9] it was 2.31 ×10⁶ /M/s; in assay [11], 9.9 ×10⁶ /M/s; in assay [12] it was 9.3 ×10⁹ /M/s; in assay [13], 0 M⁻¹ s⁻¹.

As to `Cc1c(C)c2c(c(C)c1O)CCC(C)(C(=O)O)O2` (stereo not given), the Ratio stood at 23.8 in assay [1]; 214 in assay [3]; 43.8 in assay [5]; 0.337 in assay [6]; 0 in assay [7]; 692 in [8]. The K is 2.1 ×10³ /M/s in assay [4]; 0 M⁻¹ s⁻¹ in assay [14]; 62.2 ×10⁶ /M/s in assay [9]; 4.83 ×10⁶ /M/s in assay [11]; 24.8 ×10⁹ /M/s in assay [12]; 4.72 ×10⁶ /M/s in assay [13].

Regarding `CC1(C)CCC=[N+]1[O-]`, the K stood at 2.8 ×10⁹ /M/s in assay [12] and 1.4 ×10⁷ /M/s in assay [13].
